According to article PMC8759726, “Click chemistry based synthesis, cytotoxic activity and molecular docking of novel triazole-thienopyrimidine hybrid glycosides targeting EGFR” (Journal of Enzyme Inhibition and Medicinal Chemistry, 2021):

Columns and labels:
[1] = tested on: HCT-116 (human colorectal carcinoma) cell line; assay: MTT cytotoxicity assay, HCT-116; format: cell-based; details: 48 h incubation, mean ± SD
Method: (§1) HCT-116 (human colorectal carcinoma) and MCF-7 (human breast adenocarcinoma) cell lines were purchased from the American Type Culture Collection (Rockville, MD) and maintained in Dulbecco’s Modified Eagle’s Medium (DMEM) supplemented with 10% heat-inactivated foetal bovine serum (FBS), 100 U ml^−1 penicillin, and 100 U ml^−1 streptomycin. The cells were grown at 37 °C in a humidified atmosphere of 5% CO2.
(§2) Cytotoxicity activity against HCT-116 and MCF-7 was estimated by the 3-[4,5-dimethyl-2-thiazolyl)-2,5-diphenyl-2H-tetrazolium bromide (MTT) assay. This test is based on MTT cleavage by mitochondrial dehydrogenases from viable cells[43]^,[44]. Cells were placed in a 96-well sterile microplate (5 × 10^4 cells well^−1) and incubated at 37 °C in serum-free media containing dimethyl sulphoxide (DMSO) and either a series of various concentrations of each compound or doxorubicin (positive control) for 48 h before the MTT assay. After incubation, the media were removed and 40 µl MTT (2.5 mg ml^−1) was added to each well. Incubation was resumed for an additional 4 h. The purple formazan dye crystals were solubilised with 200 µl DMSO. Absorbance was measured at 590 nm in a Spectra Max Paradigm Multi-Mode microplate reader (Molecular Devices, LLC, San Jose, CA). Relative cell viability was expressed as the mean percentage of viable cells compared to the untreated control cells.
(§3) All experiments were conducted in triplicate and repeated on three different days. All values were reported as mean ± SD. The IC50 values were determined by SPSS Inc. probit analysis (IBM Corp., Armonk, NY).

[2] = target: mutant EGFR kinase type L858R (Homo sapiens, UniProt P00533, L858R); assay: In vitro kinase inhibition assay (Kinase-Glo Max luminescence); details: IC50 (mean ± SEM) (µM) EGFR, mean of three values ± SEM
mutant EGFR kinase type L858R, sequence (P00533 25-1210 L858R): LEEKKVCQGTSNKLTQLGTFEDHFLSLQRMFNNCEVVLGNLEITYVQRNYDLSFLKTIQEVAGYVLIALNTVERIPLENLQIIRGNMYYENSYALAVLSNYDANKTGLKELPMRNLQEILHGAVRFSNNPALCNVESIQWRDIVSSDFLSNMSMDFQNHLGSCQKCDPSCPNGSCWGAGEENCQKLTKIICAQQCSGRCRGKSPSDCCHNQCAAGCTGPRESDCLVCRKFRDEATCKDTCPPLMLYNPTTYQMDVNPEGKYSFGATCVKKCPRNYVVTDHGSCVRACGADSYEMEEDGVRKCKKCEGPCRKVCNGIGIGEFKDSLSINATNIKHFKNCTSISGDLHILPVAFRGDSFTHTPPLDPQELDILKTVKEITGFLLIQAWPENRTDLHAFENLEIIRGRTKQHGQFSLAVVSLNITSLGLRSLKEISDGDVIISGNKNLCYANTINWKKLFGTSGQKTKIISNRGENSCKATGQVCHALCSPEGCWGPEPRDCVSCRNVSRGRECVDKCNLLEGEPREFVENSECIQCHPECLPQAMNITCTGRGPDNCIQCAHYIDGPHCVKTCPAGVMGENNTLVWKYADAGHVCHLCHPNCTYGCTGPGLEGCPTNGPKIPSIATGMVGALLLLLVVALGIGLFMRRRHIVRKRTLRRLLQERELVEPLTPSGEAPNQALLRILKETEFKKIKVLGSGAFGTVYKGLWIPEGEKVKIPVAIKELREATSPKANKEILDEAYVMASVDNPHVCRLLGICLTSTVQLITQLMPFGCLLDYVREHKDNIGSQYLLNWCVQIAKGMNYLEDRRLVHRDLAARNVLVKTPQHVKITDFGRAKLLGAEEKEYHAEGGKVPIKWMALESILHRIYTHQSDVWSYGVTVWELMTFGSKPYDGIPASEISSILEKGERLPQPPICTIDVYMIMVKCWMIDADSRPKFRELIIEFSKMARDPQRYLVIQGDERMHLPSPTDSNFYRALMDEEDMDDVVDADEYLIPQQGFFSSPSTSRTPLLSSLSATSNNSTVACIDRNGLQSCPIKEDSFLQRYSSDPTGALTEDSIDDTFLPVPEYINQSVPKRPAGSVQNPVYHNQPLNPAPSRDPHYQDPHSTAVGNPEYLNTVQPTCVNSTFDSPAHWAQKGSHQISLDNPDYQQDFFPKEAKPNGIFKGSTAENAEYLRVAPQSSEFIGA
Method: The master mixture (6 μl 5× kinase buffer + 1 μl ATP (500 μM)+1 μl 50× PTK substrate + 17 μl water) was prepared then, 25 μl to every well was added. Five microlitres of inhibitor solution of each well labelled as “Test Inhibitor” was added. However, for the “Positive Control” and “Blank”, 5 μl of the same solution without inhibitor (inhibitor buffer) was added. Three millilitres of 1× kinase buffer by mixing 600 μl of 5× kinase buffer with 2400 μl water was prepared. […] To the wells designated as “Blank”, 20 μl of 1× kinase buffer was added. EGFR enzyme on ice was thawed. Upon first thaw, briefly the tube containing enzyme was spun to recover full content of the tube. The amount of EGFR required for the assay and dilute enzyme to 1 ng/μl with 1× kinase buffer was calculated. Moreover, the remaining undiluted enzyme in aliquots was stored at –80 °C. The reaction was initiated by adding 20 μl of diluted EGFR enzyme to the wells designated “Positive Control” and “Test Inhibitor Control”, after that it was incubated at 30 °C for 40 min. After the 40 minutes’ reaction, 50 μl of Kinase-Glo Max reagent was added to each well and the plate was covered with aluminium foil and incubated at room temperature for 15 min. Luminescence was measured using the microplate reader.

[3] = tested on: MCF-7 (human breast adenocarcinoma) cell line; assay: MTT cytotoxicity assay, MCF-7; format: cell-based; details: 48 h incubation, mean ± SD
Method: as §1, §2, §3

| melting point [°C] | IC50 [2] [µM] | SMILES | IC50 [1] [µM] | IC50 [3] [µM] | IC50 ([1]; Homo sapiens, HCT-116, 48 h) [µM] | IC50 ([3]; Homo sapiens, MCF7, 48 h) [µM] |
| --- | --- | --- | --- | --- | --- | --- |
| 159 to 160 | 0.02 | CC(=O)OCC1OC(OCc2cn(CCCCSc3nc4sc5c(c4c(=O)n3N)CCC5)nn2)C(OC(C)=O)C(OC(C)=O)C1OC(C)=O (stereo not drawn) [Compound 17] | 8.4 ± 1.1 | 5.2 ± 0.9 |  |  |
| 153 to 154 | 0.017 | CC(=O)OC1COC(OCc2cn(CCSc3nc4sc5c(c4c(=O)n3N)CCC5)nn2)C(OC(C)=O)C1OC(C)=O (stereo not drawn) [Compound 15] |  |  | 8.9 ± 1.1 | 5 ± 0.9 |
| 181 to 182 | 0.5 ± 1 | C#CCSc1nc2sc3c(c2c(=O)n1N)CCC3 [Compound 2, 3-Amino-2-(prop-2-yn-1-ylthio)-3,5,6,7-tetrahydro-4H-cyclopenta[4,5]thieno[2,3-d]pyrimidin-4-one] |  |  | 8.6 ± 1.9 | 2.1 ± 0.3 |
| 189 to 190 | 0.17 ± 0.43 | Nn1c(SCc2cn([C@@H]3OC[C@@H](O)[C@H](O)[C@H]3O)nn2)nc2sc3c(c2c1=O)CCC3 [Compound 7, 3-Amino-2-(((1-(β-D-xylopyranosyl)-1H-1,2,3-triazol-4-yl)methyl)thio)-3,5,6,7-tetrahydro-4H-cyclopenta[4,5]thieno[2,3-d]pyrimidin-4-one] |  |  | 8.7 ± 1.5 | 4.3 ± 0.8 |
| 151 to 152 |  | CC(=O)OC[C@H]1O[C@@H](n2cc(CSc3nc4sc5c(c4c(=O)n3N)CCC5)nn2)[C@H](OC(C)=O)[C@@H](OC(C)=O)[C@@H]1OC(C)=O [Compound 4, 3-Amino-2-(((1-(2,3,4,6-tetra-O-acetyl-β-D-glucopyranosyl)-1H-1,2,3-triazol-4-yl)methyl)thio)-3,5,6,7-tetrahydro-4H-cyclopenta [4,5]thieno[2,3-d]pyrimidin-4-one] |  |  |  |  |
| 159 to 160 |  | CC(=O)OCC1OC(OCc2cn(CCSc3nc4sc5c(c4c(=O)n3N)CCC5)nn2)C(OC(C)=O)C(OC(C)=O)C1OC(C)=O [Compound 13, 3-Amino-2-(ethylylthio)-{2-[4-({[2,3,4,6-tetra-O-acetyl-β-D-glucopyranosyl]oxy}methyl)-1H-1,2,3-triazol-1-yl]ethoxy}-3,5,6,7-tetrahydro-4H-cyclopenta[4,5]thieno[2,3-d] pyrimidin-4-one] |  |  | 8.7 ± 1.6 | 4.2 ± 0.5 |
| 163 to 164 |  | CC(=O)OCC1OC(OCc2cn(CCCCSc3nc4sc5c(c4c(=O)n3N)CCC5)nn2)C(OC(C)=O)C(OC(C)=O)C1OC(C)=O (stereo not drawn) [Compound 16] |  |  | 8.1 ± 0.8 | 5.3 ± 0.8 |
|  |  | COc1cccc2c1C(=O)c1c(O)c3c(c(O)c1C2=O)C[C@@](O)(C(=O)CO)C[C@@H]3O[C@H]1C[C@H](N)[C@H](O)[C@H](C)O1 [Doxorubicin, reference compound] |  |  | 7.8 ± 0.7 | 6.7 ± 0.9 |
| 155 to 156 | 0.13 | CC(=O)OC1COC(n2cc(CSc3nc4sc5c(c4c(=O)n3N)CCC5)nn2)C(OC(C)=O)C1OC(C)=O [Compound 5, 3-Amino-2-(((1-(2,3,4-tri-O-acetyl-β-D-xyloopyranosyl)-1H-1,2,3-triazol-4-yl)methyl)thio)-3,5,6,7-tetrahydro-4H-cyclopenta[4,5]thieno[2,3-d]pyrimidin-4-one] |  |  | 8.6 ± 0.9 | 2.9 ± 0.4 |
| 156 to 157 | 0.013 | CC(=O)OCC1OC(OCc2cn(CCSc3nc4sc5c(c4c(=O)n3N)CCC5)nn2)C(OC(C)=O)C(OC(C)=O)C1OC(C)=O (stereo not drawn) [Compound 14] | 8.8 ± 1.1 | 4.5 ± 0.7 |  |  |
